In patent US9896479B2, “Functionalized naphthalene fluorophores” (Kay M. Brummond, priority 2012, dated 2018):
One block for each compound: values may come before it.

How the values were obtained:
Type in all cases: physicochemical
[1] = Fluorescence emission spectra (emission maxima, Stokes and bathochromic shifts); conditions: for Bathochromic shift: across Toluene, CH2Cl2, DMSO (Table 3)
Excerpt: (§1) All commercially available compounds were purchased from Aldrich Chemical Co., GFS Chemicals, Strem Chemicals, Acros Organics, Alfa Aesar, and Advanced Chemtech and used as received, except for p-toluenesulfonyl hydrazide, which was recrystallized from methanol. Amines were purchased from Aldrich Chemical Co. as purified by redistillation and used as received. Tetrahydrofuran (THF), diethyl ether (Et2O), and dichloromethane (CH2Cl2) were purified by passing through alumina using the Sol-Tek ST-002 solvent purification system. Acetonitrile (MeCN) and toluene were freshly distilled from CaH2 prior to use. Benzene was freshly distilled from sodium/benzophenone prior to use Anhydrous N,N-dimethylformamide (DMF), 1,2-dichloroethane (DCE), and 1,4-dioxane were purchased and used as received from Aldrich Chemical Co. Purification of the compounds by flash column chromatography was performed using silica gel (32-63 μm particle size, 60 Å pore size) purchased from Silicycle, or by using a Biotage Horizon flash purification system with either Biotage SNAP KP-SIL silica cartridges, or Teledyne ISCO RediSep Rf normal phase disposable flash columns (40-60 micron). TLC analyses were performed on EMD Chemicals Silica Gel 60 F254 glass plates (250 μm thickness). ^1H NMR and ^13C NMR spectra were recorded on Bruker Avance 300 MHz, 500 MHz, or 600 MHz spectrometers. Spectra were referenced to residual chloroform (7.27 ppm, ^1H, 77.0 ppm, ^13C) or 1,2-dichlorobenzene (6.93 ppm, ^1H, 127.19 ppm, ^13C). Chemical shifts are reported in ppm, multiplicities are indicated by s (singlet), d (doublet), t (triplet), q (quartet), p (pentet), and m (multiplet). Coupling constants, J, are reported in hertz (Hz). All NMR spectra were obtained at room temperature unless otherwise specified. IR spectra were obtained using a Nicolet Avatar E.S.P. 360 FT-IR. EI mass spectroscopy was performed on a Waters Micromass GCT high resolution mass spectrometer. ES mass spectroscopy was performed on a Waters Q-TOF Ultima API, Micromass UK Limited high resolution mass spectrometer. GC mass spectrometry was performed on a Shimadzu GCMS-17A/QP5050A spectrometer. All microwave-mediated reactions were carried out using a Biotage Initiator™ Exp microwave synthesizer. The microwave parameters were set to variable power, constant temperature, with the fixed hold time set to on. The microwave reactions were carried out in 0.2-0.5 mL, 0.5-2 mL, 2-5 mL, or 10-20 mL Biotage microwave vials. […] Absorption and fluorescence spectra were recorded on Lambda 9 spectrophotometer (Perkin Elmer) and FluoroMax-3 spectrofluorometer (Jobin Yvon, Horiba), respectively. Fluorescence quantum yields were determined by taking Prodan in DMSO (quantum yield, QY=91%) as a reference. The quantum yield values were corrected for the solvent refractive index. For spectroscopic measurements, 10^−5 M solutions of dyes in 10 mm quartz-cuvettes were used (excitation wavelength was 334 nm; slits open to 2 nm).

[2] = Absorption spectra (absorption maxima) of dyes in organic solvents
Excerpt: as §1

[3] = Fluorescence quantum yield vs Prodan in DMSO as reference; conditions: for QY (fluorescence quantum yield vs Prodan in DMSO (91%)): excitation 334 nm, 10^-5 M
Excerpt: as §1

Stokes shift ([1]; in DCM): 207 nm
emission maximum ([1]; in dichloromethane (DCM)): 531 nm
absorption maximum ([2]; in DCM): 324 nm
Compound: 1-(6-(Dimethylamino)-2,3-dihydro-1H-cyclopenta[b]naphthalen-4-yl)ethanone [Compound 10]

Compound: 1-(8-(dimethylamino)-2,3-dihydro-1H-cyclopenta[b]naphthalen-4-yl)ethanone [Compound 12]
absorption and emission maxima compared with fluorophore 102a ([1]; in DCM): comparable to those observed for fluorophore 102a

emission maximum ([1]; in dichloromethane (DCM)): 567 nm
Compound: CC(=O)c1c2c(cc3c(N(C)C)cccc13)CC(CO)(CO)C2 [7a]

SS (Stokes shift) ([1]; CH2Cl2 (Table 3)): 210 nm
λem (emission maxima) ([1]; CH2Cl2 (Table 3)): 530 nm
SS (Stokes shift) ([1]; DMSO (Table 3)): 241 nm
λem (emission maxima) ([1]; DMSO (Table 3)): 561 nm
SS (Stokes shift) ([1]; Toluene (Table 3)): 175 nm
λem (emission maxima) ([1]; Toluene (Table 3)): 493 nm
Bathochromic shift [1]: 68 nm
λabs (absorption maxima) ([2]; CH2Cl2 (Table 3)): 320 nm
λabs (absorption maxima) ([2]; DMSO (Table 3)): 320 nm
λabs (absorption maxima) ([2]; Toluene (Table 3)): 318 nm
Compound: CN(C)c1cccc2c(C(=O)C(C)(C)C)c3c(cc12)CC(CO)(CO)C3 [7b]

SS (Stokes shift) ([1]; CH2Cl2 (Table 3)): 110 nm
λem (emission maxima) ([1]; CH2Cl2 (Table 3)): 537 nm
SS (Stokes shift) ([1]; DMSO (Table 3)): 147 nm
λem (emission maxima) ([1]; DMSO (Table 3)): 574 nm
SS (Stokes shift) ([1]; Toluene (Table 3)): 80 nm
λem (emission maxima) ([1]; Toluene (Table 3)): 504 nm
Bathochromic shift [1]: 70 nm
λabs (absorption maxima) ([2]; CH2Cl2 (Table 3)): 427 nm
λabs (absorption maxima) ([2]; DMSO (Table 3)): 427 nm
λabs (absorption maxima) ([2]; Toluene (Table 3)): 424 nm
Compound: CN(C)c1ccc2cc3c(c(-c4ccc(CO)cc4)c2c1)C(=O)CC3 [15b]

emission maximum ([1]; in dichloromethane (DCM)): 566 nm
Compound: CC(=O)c1c2c(cc3ccccc13)CCC2 [Compound 6a, 1-(2,3-Dihydro-1H-cyclopenta[b]naphthalen-4-yl)ethanone]

emission maximum ([1]; in dichloromethane (DCM)): 527 nm
Compound: CC(=O)c1c2c(cc3ccc(Cl)cc13)CCC2 [Compound 6b, 1-(6-Chloro-2,3-dihydro-1H-cyclopenta[b]naphthalen-4-yl)ethanone]

emission maximum ([1]; in dichloromethane (DCM)): 564 nm
Compound: CC(=O)c1c2c(cc3c(Cl)cccc13)CCC2 [Compound 6c, 1-(8-Chloro-2,3-dihydro-1H-cyclopenta[b]naphthalen-4-yl)ethanone]

Compound: CC(=O)c1c2c(cc3cc(Cl)ccc13)CCC2 [Compound 6d, 1-(7-chloro-2,3-dihydro-1H-cyclopenta[b]naphthalen-4-yl)ethanone]
emission maximum ([1]; in dichloromethane (DCM)): 581 nm

λem (maximum emission) ([1]; 1,4-Dioxane): 495 nm
λem (maximum emission) ([1]; Acetonitrile): 529 nm
λem (maximum emission) ([1]; CH2Cl2): 510 nm
λem (maximum emission) ([1]; CHCl3): 516 nm
λem (maximum emission) ([1]; Cyclohexane): 466 nm
λem (maximum emission) ([1]; DMSO): 536 nm
λem (maximum emission) ([1]; EtOH): 578 nm
λem (maximum emission) ([1]; THF): 497 nm
λem (maximum emission) ([1]; Toluene): 490 nm
emission maximum ([1]; in methylene chloride): ~510 nm
QY (fluorescence quantum yield vs Prodan in DMSO (91%)) ([3]; 1,4-Dioxane): 46%
QY (fluorescence quantum yield vs Prodan in DMSO (91%)) ([3]; Acetonitrile): 99%
QY (fluorescence quantum yield vs Prodan in DMSO (91%)) ([3]; CH2Cl2): 99%
QY (fluorescence quantum yield vs Prodan in DMSO (91%)) ([3]; CHCl3): 77%
QY (fluorescence quantum yield vs Prodan in DMSO (91%)) ([3]; Cyclohexane): 45%
QY (fluorescence quantum yield vs Prodan in DMSO (91%)) ([3]; DMSO): 85%
QY (fluorescence quantum yield vs Prodan in DMSO (91%)) ([3]; EtOH): 5%
QY (fluorescence quantum yield vs Prodan in DMSO (91%)) ([3]; THF): 75%
QY (fluorescence quantum yield vs Prodan in DMSO (91%)) ([3]; Toluene): 62%
quantum yield ([3]; in dichloroethane): 99%
λabs (maximum absorption) ([2]; 1,4-Dioxane): 376 nm
λabs (maximum absorption) ([2]; Acetonitrile): 375 nm
λabs (maximum absorption) ([2]; CH2Cl2): 377 nm
λabs (maximum absorption) ([2]; CHCl3): 377 nm
λabs (maximum absorption) ([2]; Cyclohexane): 373 nm
λabs (maximum absorption) ([2]; DMSO): 377 nm
λabs (maximum absorption) ([2]; EtOH): 377 nm
λabs (maximum absorption) ([2]; THF): 377 nm
λabs (maximum absorption) ([2]; Toluene): 376 nm
absorption maxima ([2]; dichloroethane): 377 nm
absorption maximum ([2]; in methylene chloride): ~375 nm
Compound: CC(=O)c1c2c(cc3ccc(N(C)C)cc13)CCC2 [Compound 10, 1-(6-(Dimethylamino)-2,3-dihydro-1H-cyclopenta[b]naphthalen-4-yl)ethanone]

Compound: CC(=O)c1c2c(cc3cc(N(C)C)ccc13)CCC2 [Compound 11, 1-(7-(dimethylamino)-2,3-dihydro-1H-cyclopenta[b]naphthalen-4-yl)ethanone]
λem (maximum emission) ([1]; Acetonitrile): 545 nm
λem (maximum emission) ([1]; CH2Cl2): 509 nm
λem (maximum emission) ([1]; CHCl3): 514 nm
λem (maximum emission) ([1]; Cyclohexane): 445 nm
λem (maximum emission) ([1]; DMSO): 558 nm
λem (maximum emission) ([1]; EtOH): 605 nm
λem (maximum emission) ([1]; THF): 505 nm
λem (maximum emission) ([1]; Toluene): 481 nm
emission maximum ([1]; in methylene chloride): ~510 nm
QY (fluorescence quantum yield vs Prodan in DMSO (91%)) ([3]; Acetonitrile): 18%
QY (fluorescence quantum yield vs Prodan in DMSO (91%)) ([3]; CH2Cl2): 82%
QY (fluorescence quantum yield vs Prodan in DMSO (91%)) ([3]; CHCl3): 41%
QY (fluorescence quantum yield vs Prodan in DMSO (91%)) ([3]; Cyclohexane): 8%
QY (fluorescence quantum yield vs Prodan in DMSO (91%)) ([3]; DMSO): 37%
QY (fluorescence quantum yield vs Prodan in DMSO (91%)) ([3]; EtOH): 3%
QY (fluorescence quantum yield vs Prodan in DMSO (91%)) ([3]; THF): 34%
QY (fluorescence quantum yield vs Prodan in DMSO (91%)) ([3]; Toluene): 25%
λabs (maximum absorption) ([2]; Acetonitrile): 370 nm
λabs (maximum absorption) ([2]; CH2Cl2): 372 nm
λabs (maximum absorption) ([2]; CHCl3): 373 nm
λabs (maximum absorption) ([2]; Cyclohexane): 363 nm
λabs (maximum absorption) ([2]; DMSO): 374 nm
λabs (maximum absorption) ([2]; EtOH): 374 nm
λabs (maximum absorption) ([2]; THF): 370 nm
λabs (maximum absorption) ([2]; Toluene): 368 nm
absorption maximum ([2]; in methylene chloride): ~375 nm

λem (maximum emission) ([1]; 1,4-Dioxane): 534 nm
λem (maximum emission) ([1]; Acetonitrile): 590 nm
λem (maximum emission) ([1]; CH2Cl2): 562 nm
λem (maximum emission) ([1]; CHCl3): 562 nm
λem (maximum emission) ([1]; Cyclohexane): 480 nm
λem (maximum emission) ([1]; DMSO): 598 nm
λem (maximum emission) ([1]; EtOH): 634 nm
λem (maximum emission) ([1]; THF): 543 nm
λem (maximum emission) ([1]; Toluene): 520 nm
emission maximum ([1]; in methylene chloride): 562 nm
QY (fluorescence quantum yield vs Prodan in DMSO (91%)) ([3]; 1,4-Dioxane): 44%
QY (fluorescence quantum yield vs Prodan in DMSO (91%)) ([3]; Acetonitrile): 23%
QY (fluorescence quantum yield vs Prodan in DMSO (91%)) ([3]; CH2Cl2): 60%
QY (fluorescence quantum yield vs Prodan in DMSO (91%)) ([3]; CHCl3): 40%
QY (fluorescence quantum yield vs Prodan in DMSO (91%)) ([3]; Cyclohexane): 28%
QY (fluorescence quantum yield vs Prodan in DMSO (91%)) ([3]; DMSO): 48%
QY (fluorescence quantum yield vs Prodan in DMSO (91%)) ([3]; THF): 39%
QY (fluorescence quantum yield vs Prodan in DMSO (91%)) ([3]; Toluene): 47%
λabs (maximum absorption) ([2]; 1,4-Dioxane): 319 nm
λabs (maximum absorption) ([2]; Acetonitrile): 316 nm
λabs (maximum absorption) ([2]; CH2Cl2): 334 nm
λabs (maximum absorption) ([2]; CHCl3): 334 nm
λabs (maximum absorption) ([2]; Cyclohexane): 314 nm
λabs (maximum absorption) ([2]; DMSO): 334 nm
λabs (maximum absorption) ([2]; EtOH): 334 nm
λabs (maximum absorption) ([2]; THF): 330 nm
λabs (maximum absorption) ([2]; Toluene): 322 nm
absorption maximum ([2]; in methylene chloride): 332 nm
Compound: CC(=O)c1c2c(cc3c(N(C)C)cccc13)CCC2 [Compound 12, 1-(8-(dimethylamino)-2,3-dihydro-1H-cyclopenta[b]naphthalen-4-yl)ethanone]

SS (Stokes shift) ([1]; CH2Cl2 (Table 3)): 243 nm
λem (emission maxima) ([1]; CH2Cl2 (Table 3)): 568 nm
SS (Stokes shift) ([1]; DMSO (Table 3)): 271 nm
λem (emission maxima) ([1]; DMSO (Table 3)): 598 nm
SS (Stokes shift) ([1]; Toluene (Table 3)): 206 nm
λem (emission maxima) ([1]; Toluene (Table 3)): 526 nm
Bathochromic shift [1]: 72 nm
λabs (absorption maxima) ([2]; CH2Cl2 (Table 3)): 325 nm
λabs (absorption maxima) ([2]; DMSO (Table 3)): 327 nm
λabs (absorption maxima) ([2]; Toluene (Table 3)): 320 nm
Compound: CC(=O)c1c2c(cc3ccc(N4CCCC4)cc13)CCC2 [Compound 13, 1-(6-(pyrrolidin-1-yl)-2,3-dihydro-1H-cyclopenta[b]naphthalen-4-yl)ethanone]
absorption and emission maxima compared with fluorophore 102a ([1]; in DCM): comparable to those observed for fluorophore 102a
